From BindingDB's records for patent US12497392 (Hinova Pharmaceuticals, 2025) come the findings set out here.

The target of experiment [1] is T1, CREB-binding protein [1085-1192] (UniProt Q92793).
T1 construct: 1085-1192
The experiment can be described thus: Inhibitory Activity of Compounds on the Bromodomain (BRD) of CBP/EP300. Here is the method: (§1) A. Experimental MethodCBP and EP300AlphaScreen Test:1. Prepare 1× concentration of test buffer2. Preparation of compoundThe compound was firstly diluted in a ratio of 1:1000 relative to the final concentration using a Precision automatic sampler (by 3× gradient dilution method):1) 50 μL of compound solution with a storage concentration of 10 mM was transferred to A2 well of a 96-well plate using an Echo automatic sampler.2) 30 μL of DMSO was transferred to well A1, and wells A3 to A12 with Precision™.3) 15 μL solution was transferred from A2 to A3 by Precision, and this operation was sequentially repeated until 15 μL solution was transferred from well A10 to well A11. Thus, a 1:3 gradient dilution was completed.4) The compound plate was centrifuged at a speed of 1000 r/min for one minute.3. Preparation of test plate20 nL of solution was transferred from each concentration well of the compound plate to the test plate using an Echo automatic sampler: from well A1 of the preparation plate to wells A1 and A2 of the test plate, and from well A2 of the preparation plate to wells A3 and A4 of the test plate.4. Binding test of bromodomain (BRD)1) Preparation of 2-fold solution of protein and polypeptideThe protein and polypeptide were dissolved in a 1× concentration of detection buffer.2) 10 μL of protein and polypeptide solution was transferred to each well in columns 3 to 24 in the test plate, and 10 μL of 1× test buffer was transferred to wells in columns 1 to 2 in the test plate as negative control.3) The test plate was centrifuged at a speed of 1000 r/min for one minute.4) The test plate was incubated at room temperature for 15 min.5) A 2-fold receptor and donor solution was prepared by dissolving acceptor and donor beads with one-fold test buffer.6) 2-fold receptor and donor solutions were transferred to the test plate.15 μL of acceptor and donor solution was added and light was avoided.7) The test plate was centrifuged at a speed of 1000 r/min for one minute and then incubated at room temperature for 60 min.5. The Endpoints were Read in EnSpire and Alpha Modes.6. Curve fitting

Experiment [2] deals with T2, Histone acetyltransferase p300 [1049-1156] (UniProt Q09472).
T2 construct: 1049-1156
T2 sequence (Q09472 whole entry): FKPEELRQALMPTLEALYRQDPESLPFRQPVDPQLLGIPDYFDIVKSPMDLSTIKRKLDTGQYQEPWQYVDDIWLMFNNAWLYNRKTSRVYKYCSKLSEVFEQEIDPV
The description is as above. Here is the method: as §1

Molecules are shown by their SMILES.

T1 sequence (Q92793 1085-1192): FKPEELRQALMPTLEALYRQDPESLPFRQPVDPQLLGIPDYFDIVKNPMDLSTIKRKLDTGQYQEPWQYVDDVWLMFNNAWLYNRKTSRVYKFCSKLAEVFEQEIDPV

As usually defined, the IC50 is the concentration that inhibits the measured activity by half. Low values mean inhibition by little substance, high ones a need for much substance. Regarding `CO[C@H]1CC[C@H](n2c([C@@H]3CCOCC(=O)N3C3=CC(F)C(F)C=C3)nc3cc(C4C(C)=NOC4C)ccc32)CC1` (stereo partly specified) [US12497392, Compound 106], the results for the IC50 in experiment [1] and in experiment [2] were 4.8 nM and 2.2 nM, respectively.
On the same counts, the results for `COc1cccc(-c2nc3cc(C4C(C)=NOC4C)ccc3n2[C@H]2CC[C@H](OC)CC2)c1C1=CC(F)C(F)C=C1` (stereo partly specified) [US12497392, Compound 141] are 22 nM and 9.6 nM.
For the molecule `CO[C@H]1C[C@@H](n2c([C@@H]3CCOC(=O)N3C3=CC(F)C(F)C=C3)nc3cc(C4C(C)=NOC4C)ccc32)C1` (stereo partly specified) [US12497392, Compound 143], the IC50 in experiment [1] is 4.7 nM; in experiment [2], 2.7 nM.
